Tests used:
[1] = molecular target: T1, IRAK1 (Homo sapiens, UniProt P51617); test: RBC HotSpot Kinase Assay, IRAK1; format: biochemical; conditions: isolated kinase enzyme, 33P-ATP, P81 filter-binding
T1 construct: purchased Reaction Biology (RBC HotSpot)
In short: (§1)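 Radiometric HotSpot assay of catalytic activity with isolated recombinant kinase, possibly truncated or kinase domain only. Buffer: 20 mM Hepes pH 7.5, 10 mM MgCl2, 1 mM EGTA, 0.01% Brij35, 0.02 mg/ml BSA, 0.1 mM Na3VO4, 2 mM DTT, 1% DMSO, with cofactors specific to each kinase.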

[2] = molecular target: T2, IRAK4 (Homo sapiens, UniProt Q9NWZ3); test: RBC HotSpot Kinase Assay, IRAK4; format: biochemical; set-up: purchased Reaction Biology (RBC HotSpot); conditions: isolated kinase enzyme, 33P-ATP, P81 filter-binding
T2 sequence (Q9NWZ3 1-460): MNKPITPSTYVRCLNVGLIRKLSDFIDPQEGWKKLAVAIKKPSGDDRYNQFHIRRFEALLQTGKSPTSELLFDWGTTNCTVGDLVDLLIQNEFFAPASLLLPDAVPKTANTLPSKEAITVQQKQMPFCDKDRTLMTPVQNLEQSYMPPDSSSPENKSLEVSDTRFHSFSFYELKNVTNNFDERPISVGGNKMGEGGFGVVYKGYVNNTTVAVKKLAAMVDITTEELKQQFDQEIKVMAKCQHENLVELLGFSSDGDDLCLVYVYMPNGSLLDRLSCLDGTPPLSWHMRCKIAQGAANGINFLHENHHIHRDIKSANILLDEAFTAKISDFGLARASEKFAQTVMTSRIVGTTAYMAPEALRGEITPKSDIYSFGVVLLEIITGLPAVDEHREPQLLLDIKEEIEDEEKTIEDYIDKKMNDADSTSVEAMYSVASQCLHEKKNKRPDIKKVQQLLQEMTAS
In short: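 Radiometric filter-binding activity assay with isolated recombinant kinase (construct may be truncated or catalytic domain only) in 20 mM Hepes pH 7.5, 10 mM MgCl2, 1 mM EGTA, 2 mM DTT, 1% DMSO. Compound preincubated 20 min with kinase/substrate; reaction started with 33P-ATP, run 2 h at room temperature.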

[3] = molecular target: T3, FLT3 (Homo sapiens, UniProt P36888); test: RBC HotSpot Kinase Assay, FLT3; format: biochemical; set-up: purchased Reaction Biology (RBC HotSpot); conditions: isolated kinase enzyme, 33P-ATP, P81 filter-binding
T3 sequence (P36888 27-993): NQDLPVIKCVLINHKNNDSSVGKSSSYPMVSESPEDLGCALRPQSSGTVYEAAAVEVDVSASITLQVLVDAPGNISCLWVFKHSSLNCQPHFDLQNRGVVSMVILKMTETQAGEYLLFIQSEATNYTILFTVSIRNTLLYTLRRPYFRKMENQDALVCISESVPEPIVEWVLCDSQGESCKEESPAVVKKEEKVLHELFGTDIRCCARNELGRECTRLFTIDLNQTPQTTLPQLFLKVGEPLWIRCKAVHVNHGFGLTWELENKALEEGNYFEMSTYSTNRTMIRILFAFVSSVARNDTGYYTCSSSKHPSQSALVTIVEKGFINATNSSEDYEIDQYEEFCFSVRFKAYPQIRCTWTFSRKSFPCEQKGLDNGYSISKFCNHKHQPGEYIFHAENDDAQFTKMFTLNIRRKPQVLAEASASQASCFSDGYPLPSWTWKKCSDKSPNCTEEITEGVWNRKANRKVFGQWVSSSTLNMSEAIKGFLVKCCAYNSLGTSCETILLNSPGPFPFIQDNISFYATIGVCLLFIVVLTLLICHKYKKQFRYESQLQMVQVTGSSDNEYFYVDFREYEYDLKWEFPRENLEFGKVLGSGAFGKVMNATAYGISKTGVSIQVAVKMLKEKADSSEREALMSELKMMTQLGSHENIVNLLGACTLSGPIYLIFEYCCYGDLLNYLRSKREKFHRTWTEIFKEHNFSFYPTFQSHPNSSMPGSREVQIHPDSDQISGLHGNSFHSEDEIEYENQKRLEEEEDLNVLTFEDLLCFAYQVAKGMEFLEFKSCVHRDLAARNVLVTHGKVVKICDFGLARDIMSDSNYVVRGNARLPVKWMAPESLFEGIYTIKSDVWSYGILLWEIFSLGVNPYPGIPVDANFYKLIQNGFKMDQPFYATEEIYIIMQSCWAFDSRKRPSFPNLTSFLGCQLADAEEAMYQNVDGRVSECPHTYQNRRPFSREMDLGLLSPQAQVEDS
In short: as §1

[4] = system: MOLM14 F691L cells; test: MOLM14 F691L cell viability assay (Cell Titer Glo); format: cell-based; conditions: Homo sapiens, MOLM-14; cell viability, Cell Titer Glo, 48 hours; read-out: MOLM14 F691L IC50
Method: Both cell lines have activated FLT3 receptors, each of which carry additional resistance mutations in the kinase domain (D835Y and F691L, respectively).
For viability/cytotoxicity assessments, cells were seeded into 1536-well white polystyrene tissue culture-treated Greiner plates using a Multidrop Combi dispenser (ThermoFisher), in final volume 5 μL of growth media per well, at a density of 1000 cells per well. […] Plates were incubated for 48 hours at standard incubator conditions covered by a stainless steel gasketed lid to prevent evaporation. 48 hours post compound addition, 3 μL of Cell Titer Glo (Promega) were added to each well and plates were incubated at room temperature for 15 minutes with the stainless-steel lid in place. Luminescence readings were taken using a Viewlux imager (PerkinElmer) with a 2 second exposure time per plate.

[5] = system: MOLM14 D835Y cells; test: MOLM14 D835Y cell viability assay (Cell Titer Glo); format: cell-based; conditions: Homo sapiens, MOLM-14, 48 h, cell viability, Cell Titer Glo, 48 hours; read-out: MOLM14 D835Y IC50
In short: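 MOLM14 cells with FLT3 D835Y or F691L kinase-domain resistance mutations seeded at 1000 cells/well and exposed to compound for 48 h under standard incubator conditions. Viability read by CellTiter-Glo luminescence after 15 min at room temperature.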

T1 sequence (P51617 whole entry): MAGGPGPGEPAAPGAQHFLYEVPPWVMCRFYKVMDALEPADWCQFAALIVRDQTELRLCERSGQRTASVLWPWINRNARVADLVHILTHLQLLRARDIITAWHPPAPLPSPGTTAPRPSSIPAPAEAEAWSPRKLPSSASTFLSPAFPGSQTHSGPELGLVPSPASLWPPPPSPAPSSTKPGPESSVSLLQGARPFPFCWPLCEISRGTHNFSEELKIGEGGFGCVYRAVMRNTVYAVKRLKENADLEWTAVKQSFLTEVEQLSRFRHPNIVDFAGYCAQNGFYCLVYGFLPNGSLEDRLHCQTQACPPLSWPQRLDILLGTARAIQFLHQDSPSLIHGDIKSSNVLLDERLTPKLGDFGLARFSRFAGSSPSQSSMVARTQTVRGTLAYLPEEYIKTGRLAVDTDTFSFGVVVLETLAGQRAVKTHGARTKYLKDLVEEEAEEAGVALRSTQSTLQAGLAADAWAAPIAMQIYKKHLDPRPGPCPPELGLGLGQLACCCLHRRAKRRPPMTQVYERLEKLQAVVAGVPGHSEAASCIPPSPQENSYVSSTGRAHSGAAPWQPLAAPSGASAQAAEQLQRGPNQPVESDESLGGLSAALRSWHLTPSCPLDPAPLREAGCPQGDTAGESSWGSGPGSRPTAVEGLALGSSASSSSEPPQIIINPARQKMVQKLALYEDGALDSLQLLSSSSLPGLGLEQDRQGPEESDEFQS

SMILES	IC50 [1] [nM]	IC50 [2] [nM]	IC50 [3] [nM]	IC50 [4] [nM]	IC50 [5] [nM]
COc1cc2ncc(-c3ccnc(N[C@H]4CNC[C@@H]4F)n3)n2nc1C1CC(C)(C)C1 [Compound 80a, 4-(6-(3,3-dimethylcyclobutyl)-7-methoxyimidazo[1,2-b]pyridazin-3-yl)-N-((3S,4S)-4-fluoropyrrolidin-3-yl)pyrimidin-2-amine]	142	17	< 0.5	798	90
COc1cc2ncc(-c3ccnc(N[C@H]4CNC[C@@H]4F)n3)n2nc1C1COC1 [Compound 95a, N-((3S,4S)-4-fluoropyrrolidin-3-yl)-4-(7-methoxy-6-(oxetan-3-yl)imidazo[1,2-b]pyridazin-3-yl)pyrimidin-2-amine]	300	6	0.7	2000	113
c1cc(-c2cnc3cc(OC4CC4)c(C4CC4)nn23)nc(N[C@@H]2CCCNC2)n1 [Compound 11a, (R)-4-(7-cyclopropoxy-6-cyclopropylimidazo[1,2-b]pyridazin-3-yl)-N-(piperidin-3-yl)pyrimidin-2-amine]	52	5	< 0.5	80	22
COc1cc2ncc(-c3ccnc(N[C@H]4CNCC[C@@H]4F)n3)n2nc1C12CC(C1)C2 [Compound 91a, 4-(6-(bicyclo[1.1.1]pentan-1-yl)-7-methoxyimidazo[1,2-b]pyridazin-3-yl)-N-((3S,4S)-4-fluoropiperidin-3-yl)pyrimidin-2-amine]	45	5	< 0.5	283	28
COc1cc2ncc(-c3nc(N[C@H]4CNC[C@@H]4F)ncc3F)n2nc1C1CCCCC1 [Compound 64a, 4-(6-cyclohexyl-7-methoxyimidazo[1,2-b]pyridazin-3-yl)-5-fluoro-N-((3S,4S)-4-fluoropyrrolidin-3-yl)pyrimidin-2-amine]	< 0.5	< 0.5	< 0.5	57	6
COc1cc2ncc(-c3ccnc(N[C@H]4CNC[C@@H]4F)n3)n2nc1C1CC2(CCC2)C1 [Compound 75a, N-((3S,4S)-4-fluoropyrrolidin-3-yl)-4-(7-methoxy-6-(spiro[3.3]heptan-2-yl)imidazo[1,2-b]pyridazin-3-yl)pyrimidin-2-amine]	102	6	< 0.5	634	63
COc1cnc(N[C@@H]2CCCNC2)nc1-c1cnc2cc(OC)c(C3CC3)nn12 [Compound 105a, (R)-4-(6-cyclopropyl-7-methoxyimidazo[1,2-b]pyridazin-3-yl)-5-methoxy-N-(piperidin-3-yl)pyrimidin-2-amine]	> 10000	259	33	6340	711
CC(C)(O)c1cn2c(-c3nc(N[C@@H]4CCCNC4)ncc3F)cnc2cn1 [Compound 99a, (R)-2-(3-(5-fluoro-2-(piperidin-3-ylamino)pyrimidin-4-yl)imidazo[1,2-a]pyrazin-6-yl)propan-2-ol]	44	11	3	1420	142
c1ncc(-c2cnc3cc(OC4CC4)c(C4CC4)nn23)nc1N[C@@H]1CCCNC1 [Compound 15a, (R)-6-(7-cyclopropoxy-6-cyclopropylimidazo[1,2-b]pyridazin-3-yl)-N-(piperidin-3-yl)pyrazin-2-amine]	258	18	< 0.5	113	45
COc1cc2ncc(-c3ccnc(N[C@H]4CNCC[C@@H]4F)n3)n2nc1C1CCO1 (stereo partly drawn) [Compound 109a, N-((3S,4S)-4-fluoropiperidin-3-yl)-4-(7-methoxy-6-(oxetan-2-yl)imidazo[1,2-b]pyridazin-3-yl)pyrimidin-2-amine]	239	4	1	318	28
FC(F)COc1cc2ncc(-c3cncc(N[C@H]4CNCC[C@@H]4F)n3)n2nc1C1CC1 [Compound 7a, 6-(6-cyclopropyl-7-(2,2-difluoroethoxy)imidazo[1,2-b]pyridazin-3-yl)-N-((3 S,4S)-4-fluoropiperidin-3-yl)pyrazin-2-amine]	73	2	< 0.5	20	10
COc1cc2ncc(-c3nc(N[C@@H]4CCCNC4)ncc3F)n2nc1N1CCS(=O)(=O)CC1 [Compound 124a, (R)-4-(3-(5-fluoro-2-(piperidin-3-ylamino)pyrimidin-4-yl)-7-methoxyimidazo[1,2-b]pyridazin-6-yl)thiomorpholine 1,1-dioxide]	123	138	2	1130	90
COc1cc2ncc(-c3nc(N[C@@H]4CCCNC4)ncc3F)n2nc1C1CCC1 [Compound 53a, (R)-4-(6-cyclobutyl-7-methoxyimidazo[1,2-b]pyridazin-3-yl)-5-fluoro-N-(piperidin-3-yl)pyrimidin-2-amine]	1	< 0.5	< 0.5	10	1
COc1cc2ncc(-c3ccnc(N[C@@H]4CCCNC4)n3)n2nc1C12CC(C1)C2 [Compound 90a, (R)-4-(6-(bicyclo[1.1.1]pentan-1-yl)-7-methoxyimidazo[1,2-b]pyridazin-3-yl)-N-(piperidin-3-yl)pyrimidin-2-amine]	85	9	< 0.5	449	50
COc1cc2ncc(-c3nc(N[C@H]4CNC[C@@H]4F)ncc3F)n2nc1C1CCCC1 [Compound 61a, 4-(6-cyclopentyl-7-methoxyimidazo[1,2-b]pyridazin-3-yl)-5-fluoro-N-((3S,4S)-4-fluoropyrrolidin-3-yl)pyrimidin-2-amine]	< 0.5	< 0.5	< 0.5	28	3
COc1cc2ncc(-c3nc(N[C@@H]4CCCNC4)ncc3F)n2nc1C1CCCC1 [Compound 62a, (R)-4-(6-cyclopentyl-7-methoxyimidazo[1,2-b]pyridazin-3-yl)-5-fluoro-N-(piperidin-3-yl)pyrimidin-2-amine]	0.6	< 0.5	< 0.5	9	1

Reference: patent US20260226048A1, “MULTI-CYCLIC IRAK AND FLT3 INHIBITING COMPOUNDS AND USES THEREOF” (CHILDREN'S HOSPITAL MEDICAL CENTER, priority 2023, published 2026)
